Legend:
[1] = molecular target: Bifunctional 3'-5' exonuclease/ATP-dependent helicase WRN (Homo sapiens, UniProt Q14191); test: ADP-Glo Kinase Assay
Method: ATPase activity was measured using the ADP-Glo Kinase Assay following the manufacturers recommended protocol.

[2] = molecular target: T1, Bifunctional 3'-5' exonuclease/ATP-dependent helicase WRN [480-1251] (UniProt Q14191); test: Biochemical Activity Assays
T1 construct: 480-1251
T1 sequence (Q14191 480-1251): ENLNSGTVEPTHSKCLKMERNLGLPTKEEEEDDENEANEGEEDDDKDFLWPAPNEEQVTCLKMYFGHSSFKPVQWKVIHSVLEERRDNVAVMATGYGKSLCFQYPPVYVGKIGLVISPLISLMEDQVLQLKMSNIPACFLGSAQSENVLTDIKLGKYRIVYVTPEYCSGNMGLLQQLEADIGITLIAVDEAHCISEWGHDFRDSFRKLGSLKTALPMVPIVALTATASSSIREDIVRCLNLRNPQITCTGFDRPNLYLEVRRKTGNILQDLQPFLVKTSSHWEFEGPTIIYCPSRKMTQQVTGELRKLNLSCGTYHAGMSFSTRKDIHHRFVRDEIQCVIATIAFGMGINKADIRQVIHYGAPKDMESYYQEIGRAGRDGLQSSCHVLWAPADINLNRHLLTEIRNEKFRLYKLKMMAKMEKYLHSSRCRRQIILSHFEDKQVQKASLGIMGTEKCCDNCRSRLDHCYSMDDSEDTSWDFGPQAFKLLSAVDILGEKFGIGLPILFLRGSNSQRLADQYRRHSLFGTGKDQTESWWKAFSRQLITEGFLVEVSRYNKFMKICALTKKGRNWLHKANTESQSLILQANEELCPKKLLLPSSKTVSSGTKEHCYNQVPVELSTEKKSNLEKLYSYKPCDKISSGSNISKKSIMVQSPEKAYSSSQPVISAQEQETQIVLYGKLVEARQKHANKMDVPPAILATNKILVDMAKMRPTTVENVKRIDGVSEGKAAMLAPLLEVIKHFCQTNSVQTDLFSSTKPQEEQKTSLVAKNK

Bifunctional 3'-5' exonuclease/ATP-dependent helicase WRN, sequence (Q14191 whole entry): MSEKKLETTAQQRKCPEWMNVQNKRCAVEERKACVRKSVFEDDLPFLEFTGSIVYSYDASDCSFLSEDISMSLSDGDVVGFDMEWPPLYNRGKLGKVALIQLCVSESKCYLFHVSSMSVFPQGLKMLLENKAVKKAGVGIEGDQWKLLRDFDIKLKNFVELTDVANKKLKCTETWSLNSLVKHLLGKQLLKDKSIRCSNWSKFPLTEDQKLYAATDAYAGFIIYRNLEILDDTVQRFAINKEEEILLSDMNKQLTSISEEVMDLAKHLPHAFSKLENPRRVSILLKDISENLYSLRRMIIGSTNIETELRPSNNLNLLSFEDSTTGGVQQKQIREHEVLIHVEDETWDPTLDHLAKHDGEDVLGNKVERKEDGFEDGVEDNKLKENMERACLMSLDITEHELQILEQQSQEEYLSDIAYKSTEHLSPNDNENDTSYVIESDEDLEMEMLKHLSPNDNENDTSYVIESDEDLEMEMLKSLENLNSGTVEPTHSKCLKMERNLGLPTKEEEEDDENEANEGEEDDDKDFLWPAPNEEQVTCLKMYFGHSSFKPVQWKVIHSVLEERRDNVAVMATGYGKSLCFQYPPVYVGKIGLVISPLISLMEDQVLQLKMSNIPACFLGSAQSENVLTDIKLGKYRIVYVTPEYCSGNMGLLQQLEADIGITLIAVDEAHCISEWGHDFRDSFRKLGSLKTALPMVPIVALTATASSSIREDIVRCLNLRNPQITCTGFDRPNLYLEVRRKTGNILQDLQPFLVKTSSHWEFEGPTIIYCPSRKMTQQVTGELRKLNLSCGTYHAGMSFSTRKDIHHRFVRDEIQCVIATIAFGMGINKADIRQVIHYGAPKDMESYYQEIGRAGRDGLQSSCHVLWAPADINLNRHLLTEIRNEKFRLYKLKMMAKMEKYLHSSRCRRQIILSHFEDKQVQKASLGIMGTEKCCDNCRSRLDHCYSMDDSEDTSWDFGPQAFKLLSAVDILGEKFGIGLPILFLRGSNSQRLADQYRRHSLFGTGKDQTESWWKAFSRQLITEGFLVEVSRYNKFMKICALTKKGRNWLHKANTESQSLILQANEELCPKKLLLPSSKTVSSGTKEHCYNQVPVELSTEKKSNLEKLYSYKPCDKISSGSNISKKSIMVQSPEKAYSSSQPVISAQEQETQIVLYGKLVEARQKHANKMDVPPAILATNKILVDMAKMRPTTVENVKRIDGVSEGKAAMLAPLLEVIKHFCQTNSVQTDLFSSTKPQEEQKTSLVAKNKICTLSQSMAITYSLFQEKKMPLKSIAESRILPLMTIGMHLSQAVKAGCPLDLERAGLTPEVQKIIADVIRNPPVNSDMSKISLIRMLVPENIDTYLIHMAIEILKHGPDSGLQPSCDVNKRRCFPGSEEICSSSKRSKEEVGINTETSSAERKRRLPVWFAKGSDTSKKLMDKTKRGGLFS

Row | IC50 [1] | IC50 [2] | Structure (SMILES)
1 | 44.8 nM | 38.5 nM | CCc1c(N2CCN(C(=O)c3ncnc(C)c3O)CC2)c(=O)n2nc(-c3ccc4oc(C)nc4c3)nc2n1CC(=O)Nc1ccc(C(F)(F)F)cc1Cl [WO2025049746, Example 21]
2 | 34.9 nM | 27.9 nM | CCc1c(N2CCN(C(=O)c3ncnc(C)c3O)CC2)c(=O)n2nc(-c3ccc4c(c3)OCC4)nc2n1CC(=O)Nc1ccc(C(F)(F)F)cc1Cl [WO2025049746, Example 12]
3 | 44 nM | 45 nM | CCc1c(N2CCN(C(=O)c3ncnc(C)c3O)CC2)c(=O)n2nc(-c3ccc4nn(C5COC5)cc4c3)nc2n1CC(=O)Nc1ccc(C(F)(F)F)cc1Cl [WO2025049746, Example 332]
4 | 42 nM | 36 nM | CCc1c(N2CCN(C(=O)c3ncnc(C)c3O)CC2)c(=O)n2nc(N(C)C)nc2n1CC(=O)Nc1ccc(SC(F)(F)F)cc1Cl [WO2025049746, Example 396]
5 | 60 nM | 41 nM | CCc1c(N2CCN(C(=O)c3ncnc(C)c3O)CC2)c(=O)n2nc(-c3cnn4c3CCCC4)nc2n1CC(=O)Nc1ccc(C(F)(F)F)cc1Cl [WO2025049746, Example 167]
6 | 74 nM | 98 nM | CCc1c(N2CCN(C(=O)c3ncnc(C)c3O)CC2)c(=O)n2nc(-c3ccc4c(c3)CC[C@H]4OC(F)F)nc2n1CC(=O)Nc1ccc(C(F)(F)F)cc1Cl [WO2025049746, Example 226]
7 | 57 nM | 55 nM | CCc1c(N2CCN(C(=O)c3nccc4nc[nH]c34)CC2)c(=O)n2nc(-c3ccc4c(c3)COC4(C)C)nc2n1CC(=O)Nc1ccc(C(F)(F)F)cc1Cl [WO2025049746, Example 456]
8 | 86.3 nM | 56 nM | CCc1c(N2CCN(C(=O)c3ncnc(C)c3O)CC2)c(=O)n2nc(N3CC(OC)C3)nc2n1CC(=O)Nc1ccc(C(F)(F)F)cc1Cl [WO2025049746, Example 27]
9 | 3830 nM | 1550 nM | CCc1c(N2CCN(C(=O)c3ncnc(C)c3O)CC2)c(=O)n2nc(-c3cccc4c3COC(C)(C)C4)nc2n1CC(=O)Nc1ccc(C(F)(F)F)cc1Cl [WO2025049746, Example 223]
10 | 40 nM | 31 nM | CCc1c(N2CCN(C(=O)c3ncnc(C)c3O)CC2)c(=O)n2nc(-c3ccc4c(c3)CO[C@H]4C)nc2n1CC(=O)Nc1ccc(C(F)(F)F)cc1Cl [WO2025049746, Example 192]
11 | 28 nM | 28 nM | CCc1c(N2CCN(C(=O)c3ncnc(C)c3O)CC2)c(=O)n2nc(-c3ccc([S+](C)[O-])cc3)nc2n1CC(=O)Nc1ccc(C(F)(F)F)cc1Cl (stereo not drawn) [WO2025049746, Example 333]
12 | 31 nM | 36 nM | CCc1c(N2CCN(C(=O)c3ncnc(C)c3O)CC2)c(=O)n2nc(-c3ccc4c(c3)COC43COC3)nc2n1CC(=O)Nc1ccc(C(F)(F)F)cc1Cl [WO2025049746, Example 278]
13 | 30 nM | 32 nM | CCc1c(N2CCN(C(=O)c3ncnc(C)c3O)CC2)c(=O)n2nc(-c3ccn4nc(OC(F)F)cc4c3F)nc2n1CC(=O)Nc1ccc(C(F)(F)F)cc1Cl [WO2025049746, Example 334]
14 | 138 nM | 109 nM | CCc1c(N2CCN(C(=O)c3cc4nnn(C)c4cc3O)CC2)c(=O)n2nc(-c3ccc4c(c3)COC4)nc2n1CC(=O)Nc1ccc(C(F)(F)F)cc1Cl [WO2025049746, Example 433]
15 | 51 nM | 37 nM | CCc1c(N2CCN(C(=O)c3ncnc(C)c3O)CC2)c(=O)n2nc(-c3cnc4c(c3)CCO4)nc2n1CC(=O)Nc1ccc(C(F)(F)F)cc1Cl [WO2025049746, Example 157]
16 | 30.8 nM | 23.9 nM | CCc1c(N2CCN(C(=O)c3ncnc(C)c3O)CC2)c(=O)n2nc(-c3ccc4c(c3)CCOC4)nc2n1CC(=O)Nc1ccc(C(F)(F)F)c2c1CC2 [WO2025049746, Example 98]
17 | 53 nM | 60 nM | CCc1c(N2CCN(C(=O)c3ncnc(C)c3O)CC2)c(=O)n2nc(-c3cc(C)c4ncccc4c3)nc2n1CC(=O)Nc1ccc(C(F)(F)F)cc1Cl [WO2025049746, Example 336]
18 | 142 nM | 115 nM | CCc1c(N2CCN(C(=O)c3ncnc(C)c3O)CC2)c(=O)n2nc(-c3cccc4c3OCCO4)nc2n1CC(=O)Nc1ccc(SC(F)(F)F)cc1Cl [WO2025049746, Example 399]
19 | 30 nM | 31 nM | CCc1c(N2CCN(C(=O)c3ncnc(C)c3O)CC2)c(=O)n2nc(-c3ccc4nn(C(C)C)cc4c3)nc2n1CC(=O)Nc1ccc(C(F)(F)F)cc1Cl [WO2025049746, Example 262]

From BindingDB's records for patent WO2025049746 (Eikon Therapeutics, 2025)
